Measured values reported in patent US7939552B2, “Benzyloxypropylamine derivative” (Nippon Zoki Pharmaceutical Co., Ltd., priority 2005, dated 2011).
Where two headings read alike, the source gives them in different places.

Assays:
human NK1 receptor = biological target: T1, human NK1 receptor (Homo sapiens, UniProt P25103); assay: Human NK1 receptor binding assay (3H-Sar9-SP, hNK1-CHO cells); details: room temperature 60 minutes
T1 construct: expressed in transfected cells; host or cells: CHO cells (hNK1-CHO)
Procedure: A supernatant liquid was removed from an hNK1-CHO cell incubation flask in a confluent state, trypsin (0.25%)-EDTA (1 mmol/L) (Gibco) was added thereto and the cells were exfoliated and recovered. After they were washed with a buffer A (pH 7.5; 50 mmol/L Tris hydrochloride 50 mmol/L, 150 mmol/L NaCl and 0.02% BSA) for one time (at […] for 5 minutes), cell numbers were adjusted and re-floated on a buffer for assay {a buffer A to which 40 μg/mL bacitracin (Sigma), 4 μg/mL leupeptin (Sigma), 4 μg/mL chymostatin (Sigma) and 4 μg/mL phosphoramidon (Sigma) were added}. The hNK1-CHO cells (100 μL) were placed in a tube (TPX-12, Maruemu) in which 300 μL of the buffer for assay was charged so as to make cells 10^5 per tube, 50 μL of a hot solution (^3H-Sar^9-SP, final concentration: […]) and 50 μL of a substance to be tested were added (a system of 500 μL), stirred and made to react at room temperature for 60 minutes. After completion of the reaction, it was filtered through a GF/B filter (25 mm diameter, Whatman) which was previously dipped in 0.1% polyethyleneimine p-70 (Wako Pure Chemical), washed with the buffer A (4 mL each for three times), placed in a vial and dried at 60° C. for one night. After drying, 10 mL of a scintillator (AL-1, toluene base, Dojindo) was added thereto and dpm was measured by a liquid scintillation counter (for 5 minutes/vial).
With regard to a nonspecific binding, it was defined as the dpm when 10 μmol/L of the substance P was added instead of the substance to be tested. The experiment was conducted in duplicate and at least three experiments were repeated. IC50 value was calculated using a probit method (statistic library II, Yukms).

[1] = Pharmacokinetic test in blood by a single oral administration to guinea pigs; assay type: in vivo; details: 100 mg/kg orally, plasma; for AUC(0-t): read-out: AUC 0-24 h; for half-life: read-out: t½ (converted)
Procedure: Male guinea pigs of a Hartley strain (SPF, Nippon SLC) were purchased and subjected to a preliminary breeding for one week and the normally grown ones were fasted for one night and used for the test. The compound of the present invention was suspended in 1 g/dL methyl cellulose solution and 100 mg/kg was orally administered in an administering dose of 5 mL/kg. After 0.5, 1, 2, 4, 8 and 24 hour(s) from the oral administration, about 0.4 mL of blood was collected from the vein of median of foreleg using a heparinized capillary. Plasma prepared by its centrifugation (at 12,000 rpm for 10 minutes) was stored at −80° C. until the measurement. Measurement of the concentration in blood was conducted by a UV-detecting HPLC method.

NK1 receptor = biological target: T2, NK1 receptor (Cavia porcellus, UniProt P30547); assay: Test for transfer into cerebral center of guinea pigs ([3H]substance P binding in striatum homogenate after oral dosing); assay type: in vivo; details: 4 hours after oral administration of 20 mg/mL at 5 mL/kg
T2 construct: the brain was excised and the striatum was collected; from tissue; host or cells: striatum of male Hartley guinea pigs (Nippon SLC), homogenate after oral dosing
Procedure: Male guinea pigs of a Hartley strain (four weeks age, SPF, Nippon SLC) were purchased, subjected to a preliminary breeding for not shorter than one week, fasted for one night and used for the test where one group comprised eight guinea pigs. As a substance to be tested, the Compound 21 which is the compound of the present invention was suspended in 1% methyl cellulose […] to make 20 mg/mL. As a substance for comparison, LY-303870 [(R)-1-[N-(2-methoxybenzyl)acetylamino]-3-(1H-indol-3-yl)-2-[N-(2-(4-(piperidin-1-yl)piperidin-1-yl)acetyl)amino]propane] was dissolved in a 1% aqueous solution of MC to make 20 mg/mL.
A test was conducted in accordance with a method of Iyengar, et al. Thus, a 1% aqueous solution of MC and the above-prepared solution of the test substance were orally administered in an administering dose of 5 mL/kg, then the animals were killed by carbon dioxide gas after 4 hours from administration of the test substance solution and after 1 hour from administration of the 1% aqueous MC solution and the comparative substance solution, the brain was excised and the striatum was collected. After measuring its wet weight, 50 mmol/L Tris-HCl (pH 7.5) was added thereto so as to make it 40 mg/mL followed by homogenizing for 10 seconds. […]

[2] = male, Hartley, guinea pig, po, read-out: Cmax
[3] = male, Hartley, guinea pig, po, read-out: Tmax

T1 sequence (P25103 whole entry): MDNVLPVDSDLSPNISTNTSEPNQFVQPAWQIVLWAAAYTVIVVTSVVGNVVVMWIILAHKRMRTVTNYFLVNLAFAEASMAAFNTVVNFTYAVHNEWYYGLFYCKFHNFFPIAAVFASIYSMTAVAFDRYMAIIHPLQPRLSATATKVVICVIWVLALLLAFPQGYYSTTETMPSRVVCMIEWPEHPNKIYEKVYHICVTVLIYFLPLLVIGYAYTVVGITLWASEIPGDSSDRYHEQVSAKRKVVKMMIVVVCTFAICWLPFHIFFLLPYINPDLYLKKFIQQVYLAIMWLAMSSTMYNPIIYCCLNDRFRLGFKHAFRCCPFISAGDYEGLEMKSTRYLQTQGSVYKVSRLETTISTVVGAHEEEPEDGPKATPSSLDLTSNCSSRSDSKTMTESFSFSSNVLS
T2 sequence (P30547 whole entry): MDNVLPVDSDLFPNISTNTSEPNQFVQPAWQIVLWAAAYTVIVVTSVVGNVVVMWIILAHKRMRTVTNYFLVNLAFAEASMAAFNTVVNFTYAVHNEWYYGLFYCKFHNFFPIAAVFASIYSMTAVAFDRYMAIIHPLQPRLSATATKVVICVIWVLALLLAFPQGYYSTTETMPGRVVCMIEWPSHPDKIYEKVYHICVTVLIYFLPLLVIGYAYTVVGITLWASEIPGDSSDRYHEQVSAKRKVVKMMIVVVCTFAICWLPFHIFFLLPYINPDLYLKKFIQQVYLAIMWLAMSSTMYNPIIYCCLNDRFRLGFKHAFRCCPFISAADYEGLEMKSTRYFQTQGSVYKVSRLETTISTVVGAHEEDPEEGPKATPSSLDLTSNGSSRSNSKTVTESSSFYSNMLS

| Structure (SMILES) | IC50 (human NK1 receptor) | AUC(0-t) ([1]; male, Hartley, guinea pig, po) | Cmax [1, 2] | Tmax [1, 3] | half-life ([1]; male, Hartley, guinea pig, po) | Cmax [1] | Tmax [1] | t½ [1] | specific binding of [3H]substance P (NK1 receptor; guinea pig striatum homogenate, control group 1083.4±95.5 dpm) | occupying rate of the NK1 receptor in the brain (NK1 receptor; guinea pigs, mean value ±standard deviation) |
| --- | --- | --- | --- | --- | --- | --- | --- | --- | --- | --- |
| Cl.O=C(NCC(COCc1cc(C(F)(F)F)cc(C(F)(F)F)c1)c1ccccc1)C1CCNCC1 (centres unmarked) [Compound 4, N-[3-(3,5-Bis(trifluoromethyl)benzyloxy)-2-phenylpropyl]piperidine-4-carboxamide hydrochloride] | 29.3 nM | 28.2 µg·h/mL | 2000 ng/mL | 8 h |  |  |  |  |  |  |
| O=C(NCC(COCc1cc(C(F)(F)F)cc(C(F)(F)F)c1)c1ccccc1)c1cc[n+]([O-])cc1 (centres unmarked) [Compound 20, N-[3-(3,5-Bis(trifluoromethyl)benzyloxy)-2-phenylpropyl]-1-oxyisonicotinamide] | 5.8 nM | 87.3 µg·h/mL | 10900 ng/mL | 2 h | 3.4 h |  |  |  |  |  |
| O=C(NCC(COCc1cc(C(F)(F)F)cc(C(F)(F)F)c1)c1ccc(F)cc1)c1cc[n+]([O-])cc1 (centres unmarked) [Compound 21, N-[3-(3,5-Bis(trifluoromethyl)benzyloxy)-2-(4-fluorophenyl)propyl]-1-oxyisonicotinamide] | 2.9 nM |  |  |  |  | 26900 ng/mL | 4 h | 3.2 h | 228.2±15.5 dpm | 79.9±1.4% |
| O=C(NCC(COCc1cc(C(F)(F)F)cc(C(F)(F)F)c1)c1ccccc1)c1ccc[n+]([O-])c1 (centres unmarked) [Compound 22, N-[3-(3,5-Bis(trifluoromethyl)benzyloxy)-2-phenylpropyl]-1-oxynicotinamide] | 6.4 nM | 200 µg·h/mL | 18300 ng/mL | 2 h | 2.6 h |  |  |  |  |  |
| O=C(NCC(COCc1cc(C(F)(F)F)cc(C(F)(F)F)c1)c1ccc(F)cc1)c1ccc[n+]([O-])c1 (centres unmarked) [Compound 23, N-[3-(3,5-Bis(trifluoromethyl)benzyloxy)-2-(4-fluorophenyl)propyl]-1-oxynicotinamide] | 5.4 nM | 236 µg·h/mL | 17500 ng/mL | 4 h | 3.5 h |  |  |  |  |  |
| O=C(Cc1cc[n+]([O-])cc1)NCC(COCc1cc(C(F)(F)F)cc(C(F)(F)F)c1)c1ccccc1 (centres unmarked) [Compound 39, N-[3-(3,5-Bis(trifluoromethyl)benzyloxy)-2-phenylpropyl]-2-(1-oxypyridin-4-yl)acetamide] | 7.3 nM | 379 µg·h/mL | 25700 ng/mL | 8 h | 3.2 h |  |  |  |  |  |
| O=C(Cc1cc[n+]([O-])cc1)NCC(COCc1cc(C(F)(F)F)cc(C(F)(F)F)c1)c1ccc(F)cc1 (centres unmarked) [Compound 40, N-[3-(3,5-Bis(trifluoromethyl)benzyloxy)-2-(4-fluorophenyl)propyl]-2-(1-oxypyridin-4-yl)acetamide] | 7.3 nM | 279 µg·h/mL | 22800 ng/mL | 4 h | 4 h |  |  |  |  |  |
| O=C(Cc1ccc[n+]([O-])c1)NCC(COCc1cc(C(F)(F)F)cc(C(F)(F)F)c1)c1ccc(F)cc1 (centres unmarked) [Compound 42, N-[3-(3,5-Bis(trifluoromethyl)benzyloxy)-2-(4-fluorophenyl)propyl]-2-(1-oxypyridin-3-yl)acetamide] | 4 nM | 215 µg·h/mL | 16900 ng/mL | 4 h | 3 h |  |  |  |  |  |
| O=C(CCc1cc[n+]([O-])cc1)NCC(COCc1cc(C(F)(F)F)cc(C(F)(F)F)c1)c1ccccc1 (centres unmarked) [Compound 51, N-[3-(3,5-Bis(trifluoromethyl)benzyloxy)-2-phenylpropyl]-3-(1-oxypyridin-4-yl)propionamide] | 9.4 nM | 103 µg·h/mL | 13800 ng/mL | 1 h | 3.4 h |  |  |  |  |  |
| Cl.O=C(NCC(COCc1cc(C(F)(F)F)cc(C(F)(F)F)c1)c1ccccc1)c1ccc(CN2CCCC2)cc1 (centres unmarked) [Compound 64, N-[3-(3,5-Bis(trifluoromethyl)benzyloxy)-2-phenylpropyl]-4-pyrrolidin-1-ylmethylbenzamide hydrochloride] | 56.4 nM | 19.7 µg·h/mL | 1700 ng/mL | 4 h | 8 h |  |  |  |  |  |
